Test results as given in the NIST ThermoML archive (doi:10.1016/j.jct.2016.08.010).
± gives the expanded uncertainty stated by the source.

What was measured:
[1] = 100 kPa; for speed of sound: Frequency=3 MHz, Sing-around technique in a fixed-path interferometer; for mass density: Vibrating tube method
[2] = molar heat capacity at constant pressure; conditions: 100 kPa, Small sample (50 mg) DSC
[3] = xn = mol fraction of the nth substance listed; conditions: 100 kPa, Liquid; for speed of sound: Frequency=3 MHz, Sing-around technique in a fixed-path interferometer; for mass density: Vibrating tube method
[4] = molar heat capacity at constant pressure; xn = mol fraction of the nth substance listed; conditions: 100 kPa, Liquid, Small sample (50 mg) DSC

Compound | speed of sound ([1]; 293.15 K, Liquid) [m/s] | mass density ([1]; 293.15 K, Liquid) [kg/m3] | speed of sound ([1]; 298.15 K, Liquid) [m/s] | mass density ([1]; 298.15 K, Liquid) [kg/m3] | speed of sound ([1]; 303.15 K, Liquid) [m/s] | mass density ([1]; 303.15 K, Liquid) [kg/m3] | speed of sound ([1]; 308.15 K, Liquid) [m/s] | mass density ([1]; 308.15 K, Liquid) [kg/m3] | molar heat capacity at constant pressure ([2]; 293.15 K, Liquid) [J/K/mol] | molar heat capacity at constant pressure ([2]; 298.15 K, Liquid) [J/K/mol] | molar heat capacity at constant pressure ([2]; 303.15 K, Liquid) [J/K/mol] | molar heat capacity at constant pressure ([2]; 308.15 K, Liquid) [J/K/mol] | speed of sound ([3]; 293.15 K, x2 = 0) [m/s] | mass density ([3]; 293.15 K, x2 = 0) [kg/m3] | speed of sound ([3]; 298.15 K, x2 = 0) [m/s] | mass density ([3]; 298.15 K, x2 = 0) [kg/m3] | speed of sound ([3]; 303.15 K, x2 = 0) [m/s] | mass density ([3]; 303.15 K, x2 = 0) [kg/m3] | speed of sound ([3]; 308.15 K, x2 = 0) [m/s] | mass density ([3]; 308.15 K, x2 = 0) [kg/m3] | also measured
CCCCn1cc[n+](C)c1.F[B-](F)(F)F [1-butyl-3-methylimidazolium tetrafluoroborate] | 1578.1 ± 1.7 | 1203.1 ± 2.1 | 1565.5 ± 1.7 | 1198.9 ± 2.1 | 1554.1 ± 1.7 | 1195.3 ± 2.1 | 1542.3 ± 1.7 | 1191.7 ± 2.1 | 362.35 ± 7.7 | 365.12 ± 7.8 | 367.48 ± 7.8 | 369.88 ± 7.9 |  |  |  |  |  |  |  |  | 
CCCCn1cc[n+](C)c1.F[B-](F)(F)F [1-butyl-3-methylimidazolium tetrafluoroborate] + CCn1cc[n+](C)c1.F[B-](F)(F)F |  |  |  |  |  |  |  |  |  |  |  |  |  |  |  |  |  |  |  |  | speed of sound ([3]; 293.15 K, x1 = 1): 1578.1 ± 1.7 m/s; mass density ([3]; 293.15 K, x1 = 1): 1203.1 ± 2.1 kg/m3; speed of sound ([3]; 298.15 K, x1 = 1): 1565.5 ± 1.7 m/s; mass density ([3]; 298.15 K, x1 = 1): 1198.9 ± 2.1 kg/m3; speed of sound ([3]; 303.15 K, x1 = 1): 1554.1 ± 1.7 m/s; mass density ([3]; 303.15 K, x1 = 1): 1195.3 ± 2.1 kg/m3; speed of sound ([3]; 308.15 K, x1 = 1): 1542.3 ± 1.7 m/s; mass density ([3]; 308.15 K, x1 = 1): 1191.7 ± 2.1 kg/m3; molar heat capacity at constant pressure ([4]; 293.15 K, x1 = 1): 362.35 ± 7.7 J/K/mol; molar heat capacity at constant pressure ([4]; 298.15 K, x1 = 1): 365.12 ± 7.8 J/K/mol; molar heat capacity at constant pressure ([4]; 303.15 K, x1 = 1): 367.48 ± 7.8 J/K/mol; molar heat capacity at constant pressure ([4]; 308.15 K, x1 = 1): 369.88 ± 7.9 J/K/mol
CCCCn1cc[n+](C)c1.F[B-](F)(F)F [1-butyl-3-methylimidazolium tetrafluoroborate] + CCCCn1cc[n+](C)c1C.F[B-](F)(F)F |  |  |  |  |  |  |  |  |  |  |  |  | 1578.1 ± 1.7 | 1203.1 ± 2.1 | 1565.5 ± 1.7 | 1198.9 ± 2.1 | 1554.1 ± 1.7 | 1195.3 ± 2.1 | 1542.3 ± 1.7 | 1191.7 ± 2.1 | molar heat capacity at constant pressure ([4]; 293.15 K, x2 = 0): 362.35 ± 7.7 J/K/mol; molar heat capacity at constant pressure ([4]; 298.15 K, x2 = 0): 365.12 ± 7.8 J/K/mol; molar heat capacity at constant pressure ([4]; 303.15 K, x2 = 0): 367.48 ± 7.8 J/K/mol; molar heat capacity at constant pressure ([4]; 308.15 K, x2 = 0): 369.88 ± 7.9 J/K/mol
CCn1cc[n+](C)c1.F[B-](F)(F)F [1-ethyl-3-methylimidazolium tetrafluoroborate] + CCCCn1cc[n+](C)c1C.F[B-](F)(F)F |  |  |  |  |  |  |  |  |  |  |  |  | 1631.1 ± 1.6 | 1283.9 ± 2 | 1619.2 ± 1.6 | 1279.9 ± 2 | 1607.4 ± 1.6 | 1276.3 ± 2 | 1596.2 ± 1.6 | 1272.1 ± 2 | molar heat capacity at constant pressure ([4]; 293.15 K, x2 = 0): 303.2 ± 6.5 J/K/mol; molar heat capacity at constant pressure ([4]; 298.15 K, x2 = 0): 304.53 ± 6.5 J/K/mol; molar heat capacity at constant pressure ([4]; 303.15 K, x2 = 0): 306.29 ± 6.5 J/K/mol; molar heat capacity at constant pressure ([4]; 308.15 K, x2 = 0): 308.03 ± 6.6 J/K/mol
CCn1cc[n+](C)c1.F[B-](F)(F)F [1-ethyl-3-methylimidazolium tetrafluoroborate] | 1631.1 ± 1.6 | 1283.9 ± 2 | 1619.2 ± 1.6 | 1279.9 ± 2 | 1607.4 ± 1.6 | 1276.3 ± 2 | 1596.2 ± 1.6 | 1272.1 ± 2 | 303.2 ± 6.5 | 304.53 ± 6.5 | 306.29 ± 6.5 | 308.03 ± 6.6 |  |  |  |  |  |  |  |  | 
CCCCn1cc[n+](C)c1C.F[B-](F)(F)F [1-butyl-2,3-dimethylimidazolium tetrafluoroborate] |  |  |  |  |  |  |  |  |  |  |  |  |  |  |  |  |  |  |  |  | speed of sound ([1]; 293.15 K, Metastable liquid): 1659.7 ± 1.5 m/s; mass density ([1]; 293.15 K, Metastable liquid): 1193.5 ± 2 kg/m3; speed of sound ([1]; 298.15 K, Metastable liquid): 1645.7 ± 1.5 m/s; mass density ([1]; 298.15 K, Metastable liquid): 1191.8 ± 2 kg/m3; speed of sound ([1]; 303.15 K, Metastable liquid): 1632.5 ± 1.5 m/s; mass density ([1]; 303.15 K, Metastable liquid): 1189.7 ± 2 kg/m3; speed of sound ([1]; 308.15 K, Metastable liquid): 1619.8 ± 1.5 m/s; mass density ([1]; 308.15 K, Metastable liquid): 1187.9 ± 2 kg/m3; molar heat capacity at constant pressure ([2]; 293.15 K, Metastable liquid): 413.03 ± 8.8 J/K/mol; molar heat capacity at constant pressure ([2]; 298.15 K, Metastable liquid): 416.01 ± 8.9 J/K/mol; molar heat capacity at constant pressure ([2]; 303.15 K, Metastable liquid): 418.84 ± 8.9 J/K/mol; molar heat capacity at constant pressure ([2]; 308.15 K, Metastable liquid): 421.7 ± 9 J/K/mol
